# PubChem BioAssay (NCI)
#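 96-well plates; 48 h exposure; 5 concentrations. Endpoints by linear interpolation between flanking doses. Not reached: highest tested concentration assigned. Definition used: TGI = concentration required for complete inhibition of growth.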
# How the values were obtained:
# Assay in all cases: NCI anticancer screen, dose series, 48 h
# HS 578T breast = test system: HS 578T breast
# MOLT-4 leukemia = test system: MOLT-4 leukemia
# PC-3 prostate = test system: PC-3 prostate
# 786-0 renal = test system: 786-0 renal
# NCI-H460 lung = test system: NCI-H460 lung
# HOP-92 NSCLC = test system: HOP-92 NSCLC
# OVCAR-4 ovarian = test system: OVCAR-4 ovarian
# HCT-15 colon = test system: HCT-15 colon
# SF-268 CNS = test system: SF-268 CNS
# COLO 205 colon = test system: COLO 205 colon
# T-47D breast = test system: T-47D breast
# BT-549 breast = test system: BT-549 breast
# UACC-257 melanoma = test system: UACC-257 melanoma
# CAKI-1 renal = test system: CAKI-1 renal
# EKVX NSCLC = test system: EKVX NSCLC
# KM12 colon = test system: KM12 colon
# MDA-MB-435 = test system: MDA-MB-435
# NCI-H522 lung = test system: NCI-H522 lung
# OVCAR-3 ovarian = test system: OVCAR-3 ovarian
# DU-145 prostate = test system: DU-145 prostate
# LOX IMVI melanoma = test system: LOX IMVI melanoma
# NCI/ADR-RES ovarian = test system: NCI/ADR-RES ovarian
# ACHN renal = test system: ACHN renal
# IGROV1 ovarian = test system: IGROV1 ovarian
# NCI-H226 lung = test system: NCI-H226 lung
# SF-295 CNS = test system: SF-295 CNS
# SK-MEL-5 melanoma = test system: SK-MEL-5 melanoma
# U251 CNS = test system: U251 CNS
# UACC-62 melanoma = test system: UACC-62 melanoma
# OVCAR-8 ovarian = test system: OVCAR-8 ovarian
# CCRF-CEM leukemia = test system: CCRF-CEM leukemia
# NCI-H23 lung = test system: NCI-H23 lung
# SK-MEL-28 melanoma = test system: SK-MEL-28 melanoma
# MDA-MB-231 breast = test system: MDA-MB-231 breast
# SF-539 CNS = test system: SF-539 CNS
# HOP-62 NSCLC = test system: HOP-62 NSCLC
# SNB-19 CNS = test system: SNB-19 CNS
# MCF7 breast = test system: MCF7 breast
# SNB-75 CNS = test system: SNB-75 CNS
# SW-620 colon = test system: SW-620 colon
# RPMI-8226 leukemia = test system: RPMI-8226 leukemia
# RXF 393 renal = test system: RXF 393 renal
# K-562 leukemia = test system: K-562 leukemia
# HT29 colon = test system: HT29 colon
# SK-OV-3 ovarian = test system: SK-OV-3 ovarian
# SR leukemia = test system: SR leukemia
# SN12C renal = test system: SN12C renal
# UO-31 renal = test system: UO-31 renal
# OVCAR-5 ovarian = test system: OVCAR-5 ovarian
# HCT-116 colon = test system: HCT-116 colon
# MALME-3M melanoma = test system: MALME-3M melanoma
# SK-MEL-2 melanoma = test system: SK-MEL-2 melanoma
# M14 melanoma = test system: M14 melanoma
# TK-10 renal = test system: TK-10 renal
# A498 renal = test system: A498 renal
# A549 NSCLC = test system: A549 NSCLC
structure (smiles),measurement,setting,value
Oc1ccc(N=Cc2ccc(C=Nc3ccc(O)cc3)cc2)cc1,TGI,HS 578T breast,60.1 µM
same,TGI,MOLT-4 leukemia,20 µM
same,TGI,PC-3 prostate,33 µM
same,TGI,786-0 renal,31.4 µM
same,TGI,NCI-H460 lung,72.7 µM
same,TGI,HOP-92 NSCLC,62.7 µM
same,TGI,OVCAR-4 ovarian,29.6 µM
same,TGI,HCT-15 colon,29.1 µM
same,TGI,SF-268 CNS,30.8 µM
same,TGI,COLO 205 colon,39.2 µM
same,TGI,T-47D breast,> 100 µM
same,TGI,BT-549 breast,33.8 µM
same,TGI,UACC-257 melanoma,32.4 µM
same,TGI,CAKI-1 renal,35.1 µM
same,TGI,EKVX NSCLC,83.6 µM
same,TGI,KM12 colon,33.3 µM
same,TGI,MDA-MB-435,32.7 µM
same,TGI,NCI-H522 lung,59.9 µM
same,TGI,OVCAR-3 ovarian,32.6 µM
same,TGI,DU-145 prostate,32.4 µM
same,TGI,LOX IMVI melanoma,41.4 µM
same,TGI,NCI/ADR-RES ovarian,34.2 µM
same,TGI,ACHN renal,26 µM
same,TGI,IGROV1 ovarian,39 µM
same,TGI,NCI-H226 lung,29.5 µM
same,TGI,SF-295 CNS,32.3 µM
same,TGI,SK-MEL-5 melanoma,29.8 µM
same,TGI,U251 CNS,27.6 µM
same,TGI,UACC-62 melanoma,25.5 µM
same,TGI,OVCAR-8 ovarian,29.3 µM
same,TGI,CCRF-CEM leukemia,30.7 µM
same,TGI,NCI-H23 lung,34.8 µM
same,TGI,SK-MEL-28 melanoma,37.3 µM
same,TGI,MDA-MB-231 breast,27.7 µM
same,TGI,SF-539 CNS,28.6 µM
same,TGI,HOP-62 NSCLC,37.1 µM
same,TGI,SNB-19 CNS,31.6 µM
same,TGI,MCF7 breast,> 100 µM
same,TGI,SNB-75 CNS,41.5 µM
same,TGI,SW-620 colon,45.8 µM
same,TGI,RPMI-8226 leukemia,81.6 µM
same,TGI,RXF 393 renal,34.9 µM
same,TGI,K-562 leukemia,40.4 µM
same,TGI,HT29 colon,89.4 µM
same,TGI,SK-OV-3 ovarian,32.4 µM
same,TGI,SR leukemia,25.9 µM
same,TGI,SN12C renal,28.5 µM
same,TGI,UO-31 renal,34 µM
same,TGI,OVCAR-5 ovarian,38.7 µM
same,TGI,HCT-116 colon,36.8 µM
same,TGI,MALME-3M melanoma,34.4 µM
same,TGI,SK-MEL-2 melanoma,49.9 µM
same,TGI,M14 melanoma,34.5 µM
same,TGI,TK-10 renal,34 µM
same,TGI,A498 renal,94.2 µM
same,TGI,A549 NSCLC,38.4 µM
Cn1cnc([N+](=O)[O-])c1[Se]c1ncnc2nc[nH]c12,TGI,HS 578T breast,39.9 µM
same,TGI,MOLT-4 leukemia,22 µM
same,TGI,PC-3 prostate,> 100 µM
same,TGI,786-0 renal,26.5 µM
same,TGI,NCI-H460 lung,> 100 µM
same,TGI,HOP-92 NSCLC,27.9 µM
same,TGI,OVCAR-4 ovarian,23.5 µM
same,TGI,HCT-15 colon,81.6 µM
same,TGI,SF-268 CNS,78.9 µM
same,TGI,COLO 205 colon,33.3 µM
same,TGI,T-47D breast,32.8 µM
same,TGI,BT-549 breast,33.8 µM
same,TGI,UACC-257 melanoma,16.8 µM
same,TGI,CAKI-1 renal,22.1 µM
same,TGI,EKVX NSCLC,47.4 µM
same,TGI,KM12 colon,54.1 µM
same,TGI,MDA-MB-435,19.5 µM
same,TGI,NCI-H522 lung,14.7 µM
same,TGI,OVCAR-3 ovarian,29.5 µM
same,TGI,DU-145 prostate,> 100 µM
same,TGI,LOX IMVI melanoma,10.8 µM
same,TGI,NCI/ADR-RES ovarian,> 100 µM
same,TGI,ACHN renal,83.5 µM
same,TGI,IGROV1 ovarian,> 100 µM
same,TGI,NCI-H226 lung,22.6 µM
same,TGI,SF-295 CNS,> 100 µM
same,TGI,SK-MEL-5 melanoma,6.6 µM
same,TGI,U251 CNS,44 µM
same,TGI,UACC-62 melanoma,10.1 µM
same,TGI,OVCAR-8 ovarian,32.2 µM
same,TGI,CCRF-CEM leukemia,34.1 µM
same,TGI,NCI-H23 lung,61.1 µM
same,TGI,SK-MEL-28 melanoma,20.3 µM
same,TGI,MDA-MB-231 breast,19.2 µM
same,TGI,SF-539 CNS,30.9 µM
same,TGI,HOP-62 NSCLC,50.3 µM
same,TGI,SNB-19 CNS,85.8 µM
same,TGI,MCF7 breast,41.8 µM
same,TGI,SNB-75 CNS,> 100 µM
same,TGI,SW-620 colon,26.8 µM
same,TGI,RPMI-8226 leukemia,71.7 µM
same,TGI,RXF 393 renal,38.7 µM
same,TGI,K-562 leukemia,25.6 µM
same,TGI,HT29 colon,84.4 µM
same,TGI,SK-OV-3 ovarian,> 100 µM
same,TGI,SR leukemia,17 µM
same,TGI,SN12C renal,32.8 µM
same,TGI,UO-31 renal,60 µM
same,TGI,OVCAR-5 ovarian,36.2 µM
same,TGI,HCT-116 colon,74.5 µM
same,TGI,MALME-3M melanoma,21.1 µM
same,TGI,SK-MEL-2 melanoma,34.5 µM
same,TGI,M14 melanoma,24.8 µM
same,TGI,TK-10 renal,> 100 µM
same,TGI,A498 renal,37 µM
same,TGI,A549 NSCLC,> 100 µM
